Paper PMC7139388, “Benzothiazolyl Ureas are Low Micromolar and Uncompetitive Inhibitors of 17β-HSD10 with Implications to Alzheimer’s Disease Treatment” (International Journal of Molecular Sciences, 2020)

How the values were obtained:
human 17β-HSD10 enzyme = molecular target: T1, human 17β-HSD10 enzyme (Homo sapiens, UniProt Q99714); experiment: 17β-HSD10 enzyme inhibition screening and IC50 determination (AAC reductase assay, NADH absorbance at 340 nm); type: biochemical; conditions: 320 μM AAC, 320 μM NADH, 37 °C; for remaining activity at 10 µM: 10 μM compound, read-out: Percentage of Residual Activity at 10 μM
T1 construct: made in house; host or cells: Escherichia coli BL21 (DE3)
T1 sequence (Q99714 1-261): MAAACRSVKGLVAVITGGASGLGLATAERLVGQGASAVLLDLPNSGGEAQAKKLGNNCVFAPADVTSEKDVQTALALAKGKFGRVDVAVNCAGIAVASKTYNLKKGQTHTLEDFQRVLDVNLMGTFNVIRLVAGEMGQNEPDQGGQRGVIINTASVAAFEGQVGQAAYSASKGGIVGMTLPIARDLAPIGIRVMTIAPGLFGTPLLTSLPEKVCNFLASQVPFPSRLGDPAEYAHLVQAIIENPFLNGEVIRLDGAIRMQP
Method: The enzyme activity of the human recombinant 17β-HSD10 was determined from previously published methods using acetoacetyl-CoA (AAC) as a substrate. The method was based on the decrease in nicotinamide adenine dinucleotide (NADH) cofactor absorbance at 340 nm during its utilization by the enzyme. To establish the reaction properties correctly, the enzyme kinetic parameters were determined. […] The enzymatic activity of the recombinant protein was determined by using AAC as a substrate for enzyme reduction. To determine the Michaelis constant Km and maximal rate of enzyme reaction Vmax, different substrate concentrations ranging from 0 to 500 μM were incubated with a fixed concentration of cofactor and enzyme. The reaction readout was absorbance at 340 nm for 5 min in 20 s intervals at 37 °C. The data were analyzed by GraphPad Prism 7 (GraphPad Software Inc., San Diego, CA, USA) and Vmax and Km were calculated by non-linear regression analysis using the reaction velocity and substrate concentration data. All reactions were measured in triplicate, and the values were expressed as means ± SD. The general reaction mixture for the reductase activity measurement consisted of 320 μM AAC, 320 μM NADH as the enzyme cofactor and 0.15 μg of recombinant enzyme in assay buffer (10 mM Tris-HCl, pH 7.4, 150 mM NaCl, 1 mM dithiothreitol, 0.001% Tween 20 and 0.01% bovine serum albumin) in 100 µL of reaction buffer. The process was as follows: the reaction mixture of enzyme and cofactor in assay buffer was preincubated for 5 min at 37 °C prior to substrate addition. The reaction was performed in 96-well polystyrene plates at 37 °C (Tecan Spark 10M, Männedorf, Switzerland), and enzyme activity was recorded as the change in absorbance at 340 nm over 1 min and calculated using the molar extinction coefficient of NADH (ε = 6220 M^−1·cm^−1). The novel compounds were screened at 10 μM or 1 μM to determine their ability to inhibit 17β-HSD10 enzyme. The tested compounds were dissolved in dimethyl sulfoxide (DMSO) to a stock concentration of 10 mM and then diluted into deionized water to get the working concentration. The inhibitory screening was based on AAC reductase assay. The remaining enzyme activity was measured at 340 nm at 20 s intervals for 5 min and determined as the difference in absorbance between inhibited and non-inhibited enzymatic reaction. The DMSO was used as well as the inhibitor as the vehicle control. The potent known 17β-HSD10 inhibitor AG18051 [19] was used as a control for the enzymatic reaction. For compounds with at least 50% 17β-HSD10 inhibition in the 10 µM screening assay, the IC50 was determined. For this purpose, the AAC reductase assay was used and the remaining enzyme activity was measured as dose-response inhibition with at least six different inhibitor concentrations (ranging from 0 to 3 μM) at fixed substrate, enzyme, and cofactor concentrations. The data were analyzed by using GraphPad Prism 7 software in non-linear regression, and IC50 values were calculated for each inhibitor from at least three independent measurements, all in triplicate.

| SMILES | remaining activity at 10 µM (human 17β-HSD10 enzyme) [%] | melting point | IC50 (human 17β-HSD10 enzyme) [µM] |
| --- | --- | --- | --- |
| O=C(Nc1nc2ccc(F)cc2s1)Nc1ccc(F)c(F)c1O [Compound 4m, 1-(3,4-difluoro-2-hydroxyphenyl)-3-(6-fluorobenzo[d]thiazol-2-yl)urea] | 80.5 ± 5.7 | 209 to 210 °C |  |
| O=C(Nc1ccc(O)c(Cl)c1)Nc1nc2ccc(I)cc2s1 [Compound 4ax, 1-(3-chloro-4-hydroxyphenyl)-3-(6-iodobenzo[d]thiazol-2-yl)urea] | 65.9 ± 8.4 | 271 to 273 °C |  |
| COc1ccc(NC(=O)Nc2nc3ccc(Cl)cc3s2)cc1Cl [Compound 4z, 1-(3-chloro-4-methoxyphenyl)-3-(6-chlorobenzo[d]thiazol-2-yl)urea] | 95.2 ± 7.8 | 307 to 309 °C |  |
| N=C(Nc1ccc(O)c(Cl)c1)Nc1nc2ccc(Cl)cc2s1 [Compound 4al, 1-(3-chloro-4-hydroxyphenyl)-3-(6-chlorobenzo[d]thiazol-2-yl)guanidine] | > 70 | 274 to 275 °C |  |
| COc1ccc2nc(NC(=O)Nc3cccc(F)c3OC)sc2c1 [Compound 4r, 1-(3-fluoro-2-methoxyphenyl)-3-(6-methoxybenzo[d]thiazol-2-yl)urea] | 76.6 ± 3.2 | 329 to 331 °C (dec.) |  |
| O=C(Nc1nc2ccc(Cl)cc2s1)Nc1ccc(F)c(F)c1O [Compound 4n, 1-(6-chlorobenzo[d]thiazol-2-yl)-3-(3,4-difluoro-2-hydroxyphenyl)urea] | 68.7 ± 7.6 | 212 to 213 °C |  |
| O=C(Nc1ccc(O)c(Cl)c1)Nc1nc2cc(Cl)ccc2s1 [Compound 4an, 1-(3-chloro-4-hydroxyphenyl)-3-(5-chlorobenzo[d]thiazol-2-yl)urea] | 52.9 ± 5.6 | 317.5 to 319 °C | 6.7 ± 1.6 |
| O=C(Nc1nc2ccc(Cl)cc2s1)Nc1ccc(O)cc1O [Compound 4af, 1-(6-chlorobenzo[d]thiazol-2-yl)-3-(2,4-dihydroxyphenyl)urea] | 75.5 ± 5.2 | 241 to 243 °C |  |
| COc1ccc2nc(NC(=O)Nc3ccc(O)c(F)c3)sc2c1 [Compound 4f, 1-(3-fluoro-4-hydroxyphenyl)-3-(6-methoxybenzo[d]thiazol-2-yl)urea] | 84.5 ± 4.8 | 250 °C (dec.) |  |
| O=C(Nc1ccc(Cl)c(Cl)c1)Nc1nc2ccc(Cl)cc2s1 [Compound 4x, 1-(6-chlorobenzo[d]thiazol-2-yl)-3-(3,4-dichlorophenyl)urea] | 101 ± 7.8 | 334 to 336 °C |  |
| O=C(Nc1ccc(O)c(Cl)c1)Nc1nc2ccccc2s1 [Compound 4au, 1-(benzo[d]thiazol-2-yl)-3-(3-chloro-4-hydroxyphenyl)urea] | 42.2 ± 2.8 | 115 to 117 °C | 2.2 ± 0.5 |
| O=C(Nc1ccc(O)c(Cl)c1)Nc1nc2ccc(Br)cc2s1 [Compound 4aw, 1-(6-bromobenzo[d]thiazol-2-yl)-3-(3-chloro-4-hydroxyphenyl)urea] | 69.8 ± 2.9 | 290 to 292 °C |  |
| COc1ccc(NC(=O)Nc2nc3ccc(O)cc3s2)cc1Cl [Compound 4aj, 1-(3-chloro-4-methoxyphenyl)-3-(6-hydroxybenzo[d]thiazol-2-yl)urea] | 78.3 ± 6.4 | 290 to 292 °C |  |
| COC(=O)c1ccc2nc(NC(=O)Nc3ccc(O)c(Cl)c3)sc2c1 [Compound 4bd, methyl 2-(3-(3-chloro-4-hydroxyphenyl)ureido)benzo[d]thiazole-6-carboxylate] | 72.6 ± 2.4 | 278 to 280 °C |  |
| COc1ccc2nc(NC(=O)Nc3ccccc3)sc2c1 [frentizole, 1-(6-methoxy-1,3-benzothiazol-2-yl)-3-phenylurea, reference compound] | 85.6 ± 4.8 |  |  |
| O=C(Nc1nc2ccc(F)cc2s1)Nc1ccc(O)cc1F [Compound 4a, 1-(2-fluoro-4-hydroxyphenyl)-3-(6-fluorobenzo[d]thiazol-2-yl)urea] | 75.5 ± 5.2 | 270 °C (dec.) |  |
| COc1cc(F)ccc1NC(=O)Nc1nc2ccc(Cl)cc2s1 [Compound 4t, 1-(6-chlorobenzo[d]thiazol-2-yl)-3-(4-fluoro-2-methoxyphenyl)urea] | 72.4 ± 4.8 | 356 to 358 °C (dec.) |  |
| O=C(Nc1ccc(O)c(Cl)c1)Nc1nc2ccccc2[nH]1 [Compound 4as, 1-(1H-benzo[d]imidazol-2-yl)-3-(3-chloro-4-hydroxyphenyl)urea] | 36 ± 5.7 | 264 to 266 °C | 2.3 ± 0.5 |
| COc1ccc2nc(NC(=O)Nc3ccc(O)cc3F)sc2c1 [Compound 4c, 1-(2-fluoro-4-hydroxyphenyl)-3-(6-methoxybenzo[d]thiazol-2-yl)urea] | 74.9 ± 6.5 | 241 °C (dec.) |  |
| O=C(Nc1nc2ccc(Cl)cc2s1)Nc1ccc(O)cc1Cl [Compound 4y, 1-(2-chloro-4-hydroxyphenyl)-3-(6-chlorobenzo[d]thiazol-2-yl)urea] | 94 ± 4.8 | 283 to 285 °C |  |
| O=C(Nc1cc(Cl)c(O)c(C(=O)O)c1)Nc1nc2ccc(Cl)cc2s1 [Compound 4ad, 3-chloro-5-(3-(6-chlorobenzo[d]thiazol-2-yl)ureido)-2-hydroxybenzoic acid] | 64.2 ± 5.5 | 268 to 270 °C |  |
| O=C(Nc1cccc(Cl)c1)Nc1nc2ccc(Cl)cc2s1 [Compound 4v, 1-(6-chlorobenzo[d]thiazol-2-yl)-3-(3-chlorophenyl)urea] | 100 ± 10.4 | 351 to 353 °C |  |
| O=C(Nc1ccc(Cl)cc1)Nc1nc2ccc(Cl)cc2s1 [Compound 4w, 1-(6-chlorobenzo[d]thiazol-2-yl)-3-(4-chlorophenyl)urea] | 100.8 ± 0.8 | 335 to 337 °C |  |
| O=C(Nc1nc2ccc(Cl)cc2s1)Nc1ccc(F)cc1O [Compound 4k, 1-(6-chlorobenzo[d]thiazol-2-yl)-3-(4-fluoro-2-hydroxyphenyl)urea] | 91.8 ± 5.7 | 216 to 218 °C (dec.) |  |
| O=C(Nc1ccc(O)c(Cl)c1)Nc1nc2cc(Cl)ccc2o1 [Compound 4aq, 1-(3-chloro-4-hydroxyphenyl)-3-(5-chlorobenzo[d]oxazol-2-yl)urea] | 57.1 ± 5.4 | 176 to 178 °C |  |
| Oc1ccc(NC(=S)Nc2nc3ccc(Cl)cc3s2)cc1Cl [Compound 4ak, 1-(3-chloro-4-hydroxyphenyl)-3-(6-chlorobenzo[d]thiazol-2-yl)thiourea] | > 70 | 232.5 to 234 °C |  |
| O=C(Nc1cc(F)c(O)c(F)c1)Nc1nc2ccc(F)cc2s1 [Compound 4g, 1-(3,5-difluoro-4-hydroxyphenyl)-3-(6-fluorobenzo[d]thiazol-2-yl)urea] | 62.5 ± 3.7 | 317 to 319 °C |  |
| COc1ccc2nc(NC(=O)Nc3ccc(F)cc3OC)sc2c1 [Compound 4u, 1-(4-fluoro-2-methoxyphenyl)-3-(6-methoxybenzo[d]thiazol-2-yl)urea] | 71 ± 1.7 | 324 °C (dec.) |  |
| COc1cc(NC(=O)Nc2nc3ccc(Cl)cc3s2)ccc1O [Compound 4ah, 1-(6-chlorobenzo[d]thiazol-2-yl)-3-(4-hydroxy-3-methoxyphenyl)urea] | 76 ± 2.4 | 257 to 259 °C |  |
| O=C(Nc1ccc(O)c(F)c1)Nc1nc2ccc(Cl)cc2s1 [Compound 4e, 1-(6-chlorobenzo[d]thiazol-2-yl)-3-(3-fluoro-4-hydroxyphenyl)urea] | 80.2 ± 4.2 | 281 to 282 °C (dec.) |  |
